# Source: ChEMBL document CHEMBL5465560, “Selectivity Literature for EUbOPEN Chemogenomic Library” (2024)
# Legend:
# [1] = target: T1, Mitogen-activated protein kinase kinase kinase 3 (Homo sapiens) (UniProt Q99759); test: Selectivity interaction (ActivX KiNativ screen (kinase selectivity in THP-1 cell lysates)) EUB0000639a MAP3K3; assay type: subcellular; conditions: lysate, at 5 µM
# T1 sequence (whole entry): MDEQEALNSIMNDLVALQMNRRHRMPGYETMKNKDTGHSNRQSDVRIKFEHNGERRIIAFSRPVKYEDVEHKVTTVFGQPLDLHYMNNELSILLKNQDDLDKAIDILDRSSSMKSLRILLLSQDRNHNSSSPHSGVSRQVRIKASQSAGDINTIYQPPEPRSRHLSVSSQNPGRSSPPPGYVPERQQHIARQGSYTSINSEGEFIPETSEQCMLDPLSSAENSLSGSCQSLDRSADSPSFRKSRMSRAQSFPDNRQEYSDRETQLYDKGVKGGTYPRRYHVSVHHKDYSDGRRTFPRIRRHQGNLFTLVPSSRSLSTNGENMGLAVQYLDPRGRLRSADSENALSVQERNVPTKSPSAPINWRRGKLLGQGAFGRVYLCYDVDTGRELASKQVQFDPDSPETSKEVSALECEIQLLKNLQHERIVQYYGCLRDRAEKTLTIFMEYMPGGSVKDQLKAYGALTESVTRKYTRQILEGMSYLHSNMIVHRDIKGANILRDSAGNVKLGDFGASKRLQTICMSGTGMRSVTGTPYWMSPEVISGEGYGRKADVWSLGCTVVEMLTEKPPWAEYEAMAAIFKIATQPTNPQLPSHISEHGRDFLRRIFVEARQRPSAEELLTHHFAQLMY
# [2] = target: T2, Mixed lineage kinase domain-like protein (Homo sapiens) (UniProt Q8NB16); test: Selectivity interaction (ActivX KiNativ screen (kinase selectivity in THP-1 cell lysates)) EUB0000639a MLKL; assay type: subcellular; conditions: lysate
# T2 sequence (whole entry): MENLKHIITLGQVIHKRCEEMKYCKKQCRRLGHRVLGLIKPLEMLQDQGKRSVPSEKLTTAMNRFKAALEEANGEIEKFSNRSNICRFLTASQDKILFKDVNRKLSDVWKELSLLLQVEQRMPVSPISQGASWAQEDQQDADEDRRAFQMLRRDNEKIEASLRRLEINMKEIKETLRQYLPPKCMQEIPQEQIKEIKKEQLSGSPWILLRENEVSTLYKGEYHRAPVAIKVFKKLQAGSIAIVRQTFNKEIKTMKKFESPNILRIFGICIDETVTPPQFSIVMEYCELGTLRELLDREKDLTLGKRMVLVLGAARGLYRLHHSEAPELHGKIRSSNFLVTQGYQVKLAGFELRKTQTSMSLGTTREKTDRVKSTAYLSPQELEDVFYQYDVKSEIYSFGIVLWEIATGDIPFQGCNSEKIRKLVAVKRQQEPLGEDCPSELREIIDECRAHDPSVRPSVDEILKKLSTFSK
# [3] = target: T3, Serine/threonine-protein kinase STK11 (Homo sapiens) (UniProt Q15831); test: Selectivity interaction (KinomeScan (DiscoverX)) EUB0000618a STK11; conditions: at 10 µM
# T3 sequence (whole entry): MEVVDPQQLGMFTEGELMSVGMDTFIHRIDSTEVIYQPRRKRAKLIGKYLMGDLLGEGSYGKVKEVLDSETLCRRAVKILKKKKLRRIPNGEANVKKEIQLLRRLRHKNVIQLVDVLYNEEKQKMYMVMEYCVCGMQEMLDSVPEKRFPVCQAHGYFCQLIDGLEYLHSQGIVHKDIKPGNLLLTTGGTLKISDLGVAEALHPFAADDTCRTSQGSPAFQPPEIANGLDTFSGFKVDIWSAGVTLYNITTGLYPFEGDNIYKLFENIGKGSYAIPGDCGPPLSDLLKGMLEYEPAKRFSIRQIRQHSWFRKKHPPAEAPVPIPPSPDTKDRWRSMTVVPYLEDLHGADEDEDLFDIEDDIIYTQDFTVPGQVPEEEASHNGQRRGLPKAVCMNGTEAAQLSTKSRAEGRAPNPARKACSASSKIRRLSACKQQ
# [4] = target: T4, Ankyrin repeat and protein kinase domain-containing protein 1 (Homo sapiens) (UniProt Q8NFD2); test: Selectivity interaction (KinomeScan (DiscoverX)) EUB0001619a ANKK1; conditions: at 1 µM
# T4 sequence (whole entry): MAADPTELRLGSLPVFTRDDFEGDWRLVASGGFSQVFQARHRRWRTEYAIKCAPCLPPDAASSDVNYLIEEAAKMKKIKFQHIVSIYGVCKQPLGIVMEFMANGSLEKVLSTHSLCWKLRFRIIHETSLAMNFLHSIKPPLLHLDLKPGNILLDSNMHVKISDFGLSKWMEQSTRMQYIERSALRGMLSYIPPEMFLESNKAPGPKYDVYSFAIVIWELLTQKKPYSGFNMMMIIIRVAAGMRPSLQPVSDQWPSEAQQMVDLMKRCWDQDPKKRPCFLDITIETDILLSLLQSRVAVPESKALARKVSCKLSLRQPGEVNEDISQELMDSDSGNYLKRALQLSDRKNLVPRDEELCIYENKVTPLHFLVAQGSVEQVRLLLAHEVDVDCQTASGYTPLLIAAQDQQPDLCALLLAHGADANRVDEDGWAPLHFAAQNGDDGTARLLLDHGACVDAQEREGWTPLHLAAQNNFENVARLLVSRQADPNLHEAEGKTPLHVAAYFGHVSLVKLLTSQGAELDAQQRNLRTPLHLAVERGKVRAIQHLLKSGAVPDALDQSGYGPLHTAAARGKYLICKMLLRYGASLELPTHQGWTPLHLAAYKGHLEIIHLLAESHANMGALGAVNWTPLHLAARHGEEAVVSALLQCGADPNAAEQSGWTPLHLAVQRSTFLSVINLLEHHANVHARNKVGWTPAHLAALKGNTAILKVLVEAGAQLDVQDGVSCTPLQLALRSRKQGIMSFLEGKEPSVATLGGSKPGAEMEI
# [5] = target: Serine/threonine-protein kinase PLK3 (Homo sapiens, UniProt Q9H4B4); test: Selectivity interaction (Upstate Kinase Profiler service (Millipore)) EUB0000056c PLK3; conditions: at 1 µM
# [6] = target: Tyrosine-protein kinase JAK1 (Homo sapiens, UniProt P23458); test: Selectivity interaction (Kinase panel (Z-LYTE Assay)) EUB0001632a JAK1; conditions: at 10 µM
# Sequence of Tyrosine-protein kinase JAK1 (P23458 whole entry): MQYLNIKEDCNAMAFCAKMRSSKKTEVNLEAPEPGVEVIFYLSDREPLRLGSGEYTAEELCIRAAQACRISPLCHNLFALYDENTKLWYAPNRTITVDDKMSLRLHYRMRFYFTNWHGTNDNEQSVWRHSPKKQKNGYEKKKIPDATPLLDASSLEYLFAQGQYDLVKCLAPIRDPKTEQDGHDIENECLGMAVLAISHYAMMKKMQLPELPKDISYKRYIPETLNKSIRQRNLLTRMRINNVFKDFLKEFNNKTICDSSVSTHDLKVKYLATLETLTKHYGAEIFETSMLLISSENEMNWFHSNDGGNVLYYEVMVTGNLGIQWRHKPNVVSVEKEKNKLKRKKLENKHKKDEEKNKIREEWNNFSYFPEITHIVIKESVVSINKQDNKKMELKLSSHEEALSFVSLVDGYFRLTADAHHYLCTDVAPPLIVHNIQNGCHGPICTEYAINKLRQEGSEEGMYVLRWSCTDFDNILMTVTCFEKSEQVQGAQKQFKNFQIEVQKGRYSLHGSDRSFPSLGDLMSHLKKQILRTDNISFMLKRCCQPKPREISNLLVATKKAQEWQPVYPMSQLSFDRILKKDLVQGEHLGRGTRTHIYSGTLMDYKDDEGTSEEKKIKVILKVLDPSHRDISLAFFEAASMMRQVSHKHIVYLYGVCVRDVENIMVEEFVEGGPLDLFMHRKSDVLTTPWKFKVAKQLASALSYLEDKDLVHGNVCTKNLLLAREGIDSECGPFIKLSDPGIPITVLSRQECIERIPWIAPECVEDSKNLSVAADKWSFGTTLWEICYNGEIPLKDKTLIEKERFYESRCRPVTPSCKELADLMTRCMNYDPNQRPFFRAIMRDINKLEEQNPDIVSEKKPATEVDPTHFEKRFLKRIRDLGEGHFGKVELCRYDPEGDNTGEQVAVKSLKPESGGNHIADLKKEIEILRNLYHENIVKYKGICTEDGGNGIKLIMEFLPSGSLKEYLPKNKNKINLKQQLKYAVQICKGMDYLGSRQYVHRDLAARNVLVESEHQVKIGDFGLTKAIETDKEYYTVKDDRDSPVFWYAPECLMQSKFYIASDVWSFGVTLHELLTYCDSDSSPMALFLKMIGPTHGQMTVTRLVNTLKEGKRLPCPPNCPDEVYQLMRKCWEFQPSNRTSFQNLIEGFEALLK
# Sequence of Serine/threonine-protein kinase PLK3 (Q9H4B4 whole entry, looked up): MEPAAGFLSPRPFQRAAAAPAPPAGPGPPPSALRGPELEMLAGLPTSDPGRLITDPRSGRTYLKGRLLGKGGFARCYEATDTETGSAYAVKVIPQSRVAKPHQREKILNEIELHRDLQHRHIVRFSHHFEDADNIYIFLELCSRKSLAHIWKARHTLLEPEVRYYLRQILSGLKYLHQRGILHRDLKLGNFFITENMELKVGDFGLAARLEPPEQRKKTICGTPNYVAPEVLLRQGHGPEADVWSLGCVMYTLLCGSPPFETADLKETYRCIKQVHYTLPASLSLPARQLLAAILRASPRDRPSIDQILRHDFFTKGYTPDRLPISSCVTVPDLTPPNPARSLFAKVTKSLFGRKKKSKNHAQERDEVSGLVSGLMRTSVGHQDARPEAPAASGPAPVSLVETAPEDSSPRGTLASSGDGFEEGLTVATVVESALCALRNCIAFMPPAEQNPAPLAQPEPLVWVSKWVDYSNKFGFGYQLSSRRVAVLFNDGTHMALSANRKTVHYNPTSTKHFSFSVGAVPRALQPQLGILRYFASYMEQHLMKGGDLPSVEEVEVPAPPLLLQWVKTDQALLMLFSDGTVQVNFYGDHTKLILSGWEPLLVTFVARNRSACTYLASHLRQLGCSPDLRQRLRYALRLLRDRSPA
compound,measurement,setting,value
CC[C@@H]1[C@H](F)C(=O)N[C@@H]1COc1nccc2cc(C(N)=O)c(OC)cc12 [ZIMLOVISERTIB],% of inhibition,[1],-26.4%
same,% of inhibition,[2]; at 0.01 µM,-3.7%
same,% of inhibition,[2]; at 0.04 µM,7.2%
same,% of inhibition,[2]; at 0.2 µM,16.3%
same,% of inhibition,[2]; at 1 µM,42.3%
same,% of inhibition,[2]; at 5 µM,76.6%
O[C@H]1CC[C@H](Nc2ncc3nc(Nc4c(F)cc(F)cc4F)n([C@H]4CCOC4)c3n2)CC1,% of control,[3],100%
N#Cc1cccc(-c2c[nH]c3ncnc(N4CCOCC4)c23)c1,% of control,[4],98%
Cc1ccc(-c2ccc3c(ccc4sc5c(c43)NC[C@@H](C)NC5=O)n2)cn1,% of inhibition,[5],-2%
Cn1cc(-n2cnc3c(NCc4nc5cc(Cl)c(Cl)cc5[nH]4)nc(N4CCOCC4)nc32)cn1,% of control,[6],-3.66%
